According to US8815915B2, “Benzofuran-2-sulfonamides pyridine derivatives as chemokine receptor modulators” (Allergan, Inc., priority 2012, dated 2014):

Biological target: T1, CCR2 receptor (Homo sapiens, UniProt P41597)
T1 construct: expressed in transfected cells
Assay: compound-induced calcium activity on FLIPR Tetra in HEK-Gqi5 cells stably expressing CCR2
Format: cell-based
Settings: CCR2 receptor, HEK-Gqi5 cells stably expressing CCR2, calcium FLIPR Tetra; for IC50: read-out: IC50
Protocol: HEK-Gqi5 cells stably expressing CCR2 were cultured in (DMEM high glucose, 10% FBS, 1% PSA, 400 μg/ml geneticin and 50 μg/ml hygromycin. Appropriate positive control chemokines (MCP-1, MIP1A or RANTES) was used as the positive control agonist for screening compound-induced calcium activity assayed on the FLIPR^Tetra. The drug plates were prepared in 384-well microplates using the EP3 and the MultiPROBE robotic liquid handling systems. Compounds were synthesized and tested for CCR2 activity.

T1 sequence (P41597 whole entry): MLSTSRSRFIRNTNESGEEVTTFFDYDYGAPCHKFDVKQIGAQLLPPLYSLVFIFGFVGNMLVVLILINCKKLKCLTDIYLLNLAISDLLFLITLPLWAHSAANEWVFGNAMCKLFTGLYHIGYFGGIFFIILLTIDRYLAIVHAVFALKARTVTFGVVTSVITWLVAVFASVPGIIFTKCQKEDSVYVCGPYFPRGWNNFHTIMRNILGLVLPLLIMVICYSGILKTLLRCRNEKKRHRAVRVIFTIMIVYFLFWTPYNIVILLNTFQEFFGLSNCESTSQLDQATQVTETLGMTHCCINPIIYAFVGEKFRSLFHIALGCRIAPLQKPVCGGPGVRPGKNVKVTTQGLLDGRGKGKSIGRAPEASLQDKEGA

Compound	% ANTAGONISM [%]	IC50 [nM]
O=C(O)c1ccccc1CSc1ncccc1NS(=O)(=O)c1cc2ccccc2o1 [Compound 57, 2-[({3-[(1-benzofuran-2-ylsulfonyl)amino]pyridin-2-yl}sulfanyl)methyl]benzoic acid]	98	493
O=C(c1ccccc1)c1ncc(Cl)cc1NS(=O)(=O)c1cc2ccccc2o1 [Compound 29, N-[5-chloro-2-(phenylcarbonyl)pyridin-3-yl]-1-benzofuran-2-sulfonamide]	100	36
O=S(=O)(Cc1ccccc1)c1ncccc1NS(=O)(=O)c1cc2ccccc2o1 [Compound 10, N-[2-(benzylsulfonyl)pyridin-3-yl]-1-benzofuran-2-sulfonamide]	95	16
Nc1cccc(CS(=O)(=O)c2ncccc2NS(=O)(=O)c2cc3ccccc3o2)c1 [Compound 14, N-{2-[(3-aminobenzyl)sulfonyl]pyridin-3-yl}-1-benzofuran-2-sulfonamide]	102	71
O=C(O)c1ccccc1Oc1ncc(Cl)cc1NS(=O)(=O)c1cc2ccccc2o1 [Compound 26, 2-({3-[(1-benzofuran-2-ylsulfonyl)amino]-5-chloropyridin-2-yl}oxy)benzoic acid]	97	157
Cc1cnc([S+]([O-])Cc2ccccc2)c(NS(=O)(=O)c2cc3ccccc3o2)c1 (centres unmarked) [Compound 22, N-[2-(benzylsulfinyl)-5-methylpyridin-3-yl]-1-benzofuran-2-sulfonamide]	103	25
Cc1cnc(S(=O)(=O)Cc2ccccc2)c(NS(=O)(=O)c2cc3ccccc3o2)c1 [Compound 23, N-[2-(benzylsulfonyl)-5-methylpyridin-3-yl]-1-benzofuran-2-sulfonamide]	96	12
O=S(=O)(Nc1cc(F)cnc1Sc1ccccc1)c1cc2ccccc2o1 [Compound 40, N-[5-fluoro-2-(phenylsulfanyl)pyridin-3-yl]-1-benzofuran-2-sulfonamide]	65	469
O=S(=O)(Nc1cc(F)cnc1[S+]([O-])c1ccccc1)c1cc2ccccc2o1 (centres unmarked) [Compound 41, N-[5-fluoro-2-(phenylsulfinyl)pyridin-3-yl]-1-benzofuran-2-sulfonamide]	97	68
O=S(=O)(Cc1ccccc1)c1ncc(Cl)cc1NS(=O)(=O)c1cc2ccccc2o1 [Compound 3, N-[2-(benzylsulfonyl)-5-chloropyridin-3-yl]-1-benzofuran-2-sulfonamide]	90	19
O=C(O)c1ccccc1Sc1ncc(Cl)cc1NS(=O)(=O)c1cc2ccccc2o1 [Compound 47, 2-({3-[(1-benzofuran-2-ylsulfonyl)amino]-5-chloropyridin-2-yl}sulfanyl)benzoic acid]	102	1230
Nc1cccc(CS(=O)(=O)c2ncc(Cl)cc2NS(=O)(=O)c2cc3ccccc3o2)c1 [Compound 20, N-(2-((3-aminobenzyl)sulfonyl)-5-chloropyridin-3-yl)benzofuran-2-sulfonamide]	100	142
O=S(=O)(Cc1ccc[n+]([O-])c1)c1ncc(Cl)cc1NS(=O)(=O)c1cc2ccccc2o1 [Compound 7, N-(5-chloro-2-{[(1-oxidopyridin-3-yl)methyl]sulfonyl}pyridin-3-yl)-1-benzofuran-2-sulfonamide]	100	130
Cc1ncccc1Oc1ncc(Cl)cc1NS(=O)(=O)c1cc2ccccc2o1 [Compound 24, N-{5-chloro-2-[(2-methylpyridin-3-yl)oxy]pyridin-3-yl}-1-benzofuran-2-sulfonamide]	90	34
O=C(O)c1ccccc1[S+]([O-])c1ncc(Cl)cc1NS(=O)(=O)c1cc2ccccc2o1 (centres unmarked) [Compound 50, 2-({3-[(1-benzofuran-2-ylsulfonyl)amino]-5-chloropyridin-2-yl}sulfinyl)benzoic acid]	5	1950
O=C(O)c1ccccc1C[S+]([O-])c1ncccc1NS(=O)(=O)c1cc2ccccc2o1 (centres unmarked) [Compound 59, 2-[({3-[(1-benzofuran-2-ylsulfonyl)amino]pyridin-2-yl}sulfinyl)methyl]benzoic acid]	58	–
Nc1cccc(CSc2ncc(Cl)cc2NS(=O)(=O)c2cc3ccccc3o2)c1 [Compound 18, Benzofuran-2-sulfonic acid [2-(3-amino-benzylsulfanyl)-5-chloro-pyridin-3-yl]-amide]	98	95
Nc1cccc(C[S+]([O-])c2ncccc2NS(=O)(=O)c2cc3ccccc3o2)c1 (centres unmarked) [Compound 12, N-{2-[(3-aminobenzyl)sulfinyl]pyridin-3-yl}-1-benzofuran-2-sulfonamide]	100	255
